Where “and” joins values, the source holds several entries; their conditions need not be identical. Identical values can stand only once. Toxic doses and inconclusive results are not listed.

Among the data in PubChem BioAssay AID324 (DTP/NCI, 2004) are T/C values, retold here.

For this test, the system named is CD2F1 mice, AMSA-resistant P388 leukemia ip, median survival T/C. Description: NCI In Vivo Anticancer Drug Screen. Data for tumor model P388 Leukemia resistant to AMSA; NSC 249992 (intraperitoneal) in CD2F1 (CDF1) mice. The note with it: endpoint: median survival time, higher = longer survival. How it is done: The antitumor activity of compounds was measured in mice bearing transplantable tumors. Survival or tumor size were measured and the results are expressed as the measurement made in the treated group (T) divided by the measurement made in the vehicle treated control group (C). The tumor model used in this assay is P388 Leukemia resistant to AMSA; NSC 249992 (intraperitoneal) in CD2F1 (CDF1) mice

Setting [1] is: dose: 1.94 mg/kg/injection, schedule: Q04DX003 (ip), vehicle: water.
Where [2] appears, read: dose: 3.24 mg/kg/injection, schedule: Q04DX003 (ip), vehicle: water.
Setting [3] is: dose: 5.4 mg/kg/injection, schedule: Q04DX003 (ip), vehicle: water.
The mark [4] stands for this setting: dose: 9.0 mg/kg/injection, schedule: Q04DX003 (ip), vehicle: water.
The mark [5] stands for this setting: dose: 15.0 mg/kg/injection, schedule: Q04DX003 (ip), vehicle: water.

For `CN(Cc1cnc2nc(N)nc(N)c2n1)c1ccc(C(=O)N[C@@H](CCC(=O)O)C(=O)O)cc1`, the T/C reads like this: (dose: 3.0 mg/kg/injection, schedule: Q01DX005 (ip), vehicle: sodium bicarbonate) 173 % of control; (dose: 3.5 mg/kg/injection, schedule: Q01DX005 (ip), vehicle: sodium bicarbonate) 171 % of control; (dose: 4.0 mg/kg/injection, schedule: Q01DX005 (ip), vehicle: sodium bicarbonate) 164 % of control; (dose: 4.5 mg/kg/injection, schedule: Q01DX005 (ip), vehicle: sodium bicarbonate) 177 % of control; (dose: 6.48 mg/kg/injection, schedule: Q04DX003 (ip), vehicle: sodium bicarbonate) 165 % of control; (dose: 10.8 mg/kg/injection, schedule: Q04DX003 (ip), vehicle: sodium bicarbonate) 180 % of control. Besides, the T/C reads like this: (dose: 18.0 mg/kg/injection, schedule: Q04DX003 (ip), vehicle: sodium bicarbonate) 196 % of control; (dose: 30.0 mg/kg/injection, schedule: Q04DX003 (ip), vehicle: sodium bicarbonate) 114 % of control; (dose: 50.0 mg/kg/injection, schedule: Q04DX003 (ip), vehicle: sodium bicarbonate) 98 % of control.

In the case of `O=P1(N(CCCl)CCCl)NCCCO1` (stereo unspecified), the T/C runs as follows: (dose: 16.2 mg/kg/injection, schedule: Q04DX003 (ip), vehicle: saline) 196 % of control; (dose: 25.9 mg/kg/injection, schedule: Q04DX002 (ip), vehicle: saline) 220 % of control; (dose: 27.0 mg/kg/injection, schedule: Q04DX003 (ip), vehicle: saline) 240 % of control; (dose: 32.4 mg/kg/injection, schedule: Q04DX002 (ip), vehicle: saline) 243 % of control; (dose: 43.2 mg/kg/injection, schedule: Q04DX002 (ip), vehicle: saline) 333 % of control; (dose: 45.0 mg/kg/injection, schedule: Q04DX003 (ip), vehicle: saline) 348 % of control. Also, the T/C is 305 % of control (dose: 54.0 mg/kg/injection, schedule: Q04DX002 (ip), vehicle: saline); 407 % of control (dose: 72.0 mg/kg/injection, schedule: Q04DX002 (ip), vehicle: saline); 348 % of control (dose: 75.0 mg/kg/injection, schedule: Q04DX003 (ip), vehicle: saline); 416 % of control (dose: 90.0 mg/kg/injection, schedule: Q04DX002 (ip), vehicle: saline); 416 % of control (dose: 120.0 mg/kg/injection, schedule: Q04DX002 (ip), vehicle: saline); 348 % of control (dose: 125.0 mg/kg/injection, schedule: Q04DX003 (ip), vehicle: saline). Besides, the T/C reads like this: (dose: 150.0 mg/kg/injection, schedule: Q04DX002 (ip), vehicle: saline) 416 % of control; (dose: 200.0 mg/kg/injection, schedule: Q04DX002 (ip), vehicle: saline) 164 % of control.

Take `N[C@@H](Cc1ccc(N(CCCl)CCCl)cc1)C(=O)O`: the T/C is 208 % of control (dose: 1.62 mg/kg/injection, schedule: Q04DX003 (ip), vehicle: saline); 211 % of control and 212 % of control (dose: 1.94 mg/kg/injection, schedule: Q04DX002 (ip), vehicle: saline); 211 % of control (dose: 2.7 mg/kg/injection, schedule: Q04DX003 (ip), vehicle: saline); 259 % of control and 262 % of control (dose: 3.24 mg/kg/injection, schedule: Q04DX002 (ip), vehicle: saline); 391 % of control (dose: 4.5 mg/kg/injection, schedule: Q04DX003 (ip), vehicle: saline); 416 % of control (dose: 5.4 mg/kg/injection, schedule: Q04DX002 (ip), vehicle: saline). Besides, the T/C was 391 % of control (dose: 7.5 mg/kg/injection, schedule: Q04DX003 (ip), vehicle: saline); 416 % of control (dose: 9.0 mg/kg/injection, schedule: Q04DX002 (ip), vehicle: saline); 391 % of control (dose: 12.5 mg/kg/injection, schedule: Q04DX003 (ip), vehicle: saline); 120 % of control and 86 % of control (dose: 15.0 mg/kg/injection, schedule: Q04DX002 (ip), vehicle: saline).

For the compound `COc1cccc2c1C(=N)c1c(O)c3c(c(O)c1C2=O)C[C@@](O)(C(C)=O)C[C@@H]3OC1CC(N)C(O)C(C)O1` (stereo partly specified), the T/C under setting [1] was 98 % of control; the T/C under setting [2] is 98 % of control; the T/C under setting [3] was 97 % of control; the T/C under setting [4] is 100 % of control; the T/C under setting [5] was 100 % of control.

In the case of `CC(CN1CC(=O)NC(=O)C1)N1CC(=O)NC(=O)C1` (stereo unspecified), the T/C (dose: 300.0 mg/kg/injection, schedule: Q04DX003 (ip), vehicle: saline) was 198 % of control.

Regarding `Cc1c2ccncc2c(C)c2c1[nH]c1ccccc12`, the T/C (dose: 7.78 mg/kg/injection, schedule: Q04DX003 (ip), vehicle: saline with Tween-80) was 100 % of control; the T/C (dose: 13.0 mg/kg/injection, schedule: Q04DX003 (ip), vehicle: saline with Tween-80) is 87 % of control; the T/C (dose: 13.0 mg/kg/injection, schedule: Q04DX003 (ip), vehicle: water) was 96 % of control; the T/C (dose: 21.6 mg/kg/injection, schedule: Q04DX003 (ip), vehicle: saline with Tween-80) was 100 % of control; the T/C (dose: 21.6 mg/kg/injection, schedule: Q04DX003 (ip), vehicle: water) is 100 % of control; the T/C (dose: 25.9 mg/kg/injection, schedule: Q04DX002 (ip), vehicle: saline with Tween-80) is 100 % of control. The T/C is 101 % of control (dose: 36.0 mg/kg/injection, schedule: Q04DX003 (ip), vehicle: saline with Tween-80); 101 % of control (dose: 36.0 mg/kg/injection, schedule: Q04DX003 (ip), vehicle: water); 98 % of control (dose: 43.2 mg/kg/injection, schedule: Q04DX002 (ip), vehicle: saline with Tween-80); 109 % of control (dose: 60.0 mg/kg/injection, schedule: Q04DX003 (ip), vehicle: saline with Tween-80); 89 % of control (dose: 60.0 mg/kg/injection, schedule: Q04DX003 (ip), vehicle: water); 95 % of control (dose: 72.0 mg/kg/injection, schedule: Q04DX002 (ip), vehicle: saline with Tween-80). Also, the T/C is 95 % of control (dose: 120.0 mg/kg/injection, schedule: Q04DX002 (ip), vehicle: saline with Tween-80) and 95 % of control (dose: 200.0 mg/kg/injection, schedule: Q04DX002 (ip), vehicle: saline with Tween-80).

In the case of `CO[C@H]1C[C@](C)(O)Cc2cc3c(c(O)c21)C(=O)c1c(O)cc2c(c1C3=O)O[C@@H]1O[C@@]2(C)[C@H](O)[C@@H](N(C)C)[C@@H]1O`, the T/C runs as follows: (dose: 6.48 mg/kg/injection, schedule: Q04DX003 (ip), vehicle: other) 111 % of control; (dose: 10.8 mg/kg/injection, schedule: Q04DX003 (ip), vehicle: other) 114 % of control; (dose: 18.0 mg/kg/injection, schedule: Q04DX003 (ip), vehicle: other) 110 % of control; (dose: 30.0 mg/kg/injection, schedule: Q04DX003 (ip), vehicle: other) 102 % of control.

With `NC(=O)c1csc(C2OC(CO)C(O)C2O)n1` (stereo unspecified), the T/C runs as follows: (dose: 330.0 mg/kg/injection, schedule: Q01DX009 (ip), vehicle: water) 188 % of control; (dose: 500.0 mg/kg/injection, schedule: Q01DX009 (ip), vehicle: water) 88 % of control.

`COc1cccc2c1C(=O)c1c(O)c3c(c(O)c1C2=O)C[C@@](O)(/C(C)=N/NC(=O)c1ccccc1)C[C@@H]3OC1CC(N)C(O)C(C)O1` (stereo partly specified): the T/C is 109 % of control under setting [1]; 117 % of control under setting [2]; 123 % of control under setting [3]; 123 % of control under setting [4]; 115 % of control under setting [5].

Turning to `CCN(CC)C1CC(O[C@H]2C[C@](O)(C(C)=O)Cc3c(O)c4c(c(O)c32)C(=O)c2c(OC)cccc2C4=O)OC(C)C1O` (stereo partly specified), the T/C reads like this: (dose: 4.32 mg/kg/injection, schedule: Q04DX003 (ip), vehicle: water) 117 % of control; (dose: 20.0 mg/kg/injection, schedule: Q04DX003 (ip), vehicle: water) 166 % of control.

Take `Nc1ncn(C2OC(CO)C(O)C2O)c(=O)n1` (stereo unspecified): the T/C was 156 % of control (dose: 2.59 mg/kg/injection, schedule: Q04DX003 (ip), vehicle: saline); 200 % of control (dose: 4.32 mg/kg/injection, schedule: Q04DX003 (ip), vehicle: saline); 200 % of control (dose: 7.2 mg/kg/injection, schedule: Q04DX003 (ip), vehicle: saline); 211 % of control (dose: 12.0 mg/kg/injection, schedule: Q04DX003 (ip), vehicle: saline); 276 % of control (dose: 20.0 mg/kg/injection, schedule: Q04DX003 (ip), vehicle: saline).
